Results: ChEMBL document CHEMBL3580597 (J Med Chem, 2015)

Tests used:
K562 = test: cells; assay type: functional, cell-based; details: Homo sapiens, K562, 96 h
Protein polybromo-1 = Protein polybromo-1 (Homo sapiens, UniProt Q86U86); test: Binding affinity to biotinylated PB1BR5 (645 to 766 amino acid residues) (unknown origin) expressed in Rosetta2 cells by bio-layer interferometry method
[1] = molecular target: T1, Transcription intermediary factor 1-alpha (Homo sapiens, UniProt O15164); test: Binding affinity to biotinylated TRIM24 (790 to 972 amino acid residues) (unknown origin) expressed in Rosetta2 DE3 cells by bio-layer interferometry method
T1 sequence (O15164 whole entry): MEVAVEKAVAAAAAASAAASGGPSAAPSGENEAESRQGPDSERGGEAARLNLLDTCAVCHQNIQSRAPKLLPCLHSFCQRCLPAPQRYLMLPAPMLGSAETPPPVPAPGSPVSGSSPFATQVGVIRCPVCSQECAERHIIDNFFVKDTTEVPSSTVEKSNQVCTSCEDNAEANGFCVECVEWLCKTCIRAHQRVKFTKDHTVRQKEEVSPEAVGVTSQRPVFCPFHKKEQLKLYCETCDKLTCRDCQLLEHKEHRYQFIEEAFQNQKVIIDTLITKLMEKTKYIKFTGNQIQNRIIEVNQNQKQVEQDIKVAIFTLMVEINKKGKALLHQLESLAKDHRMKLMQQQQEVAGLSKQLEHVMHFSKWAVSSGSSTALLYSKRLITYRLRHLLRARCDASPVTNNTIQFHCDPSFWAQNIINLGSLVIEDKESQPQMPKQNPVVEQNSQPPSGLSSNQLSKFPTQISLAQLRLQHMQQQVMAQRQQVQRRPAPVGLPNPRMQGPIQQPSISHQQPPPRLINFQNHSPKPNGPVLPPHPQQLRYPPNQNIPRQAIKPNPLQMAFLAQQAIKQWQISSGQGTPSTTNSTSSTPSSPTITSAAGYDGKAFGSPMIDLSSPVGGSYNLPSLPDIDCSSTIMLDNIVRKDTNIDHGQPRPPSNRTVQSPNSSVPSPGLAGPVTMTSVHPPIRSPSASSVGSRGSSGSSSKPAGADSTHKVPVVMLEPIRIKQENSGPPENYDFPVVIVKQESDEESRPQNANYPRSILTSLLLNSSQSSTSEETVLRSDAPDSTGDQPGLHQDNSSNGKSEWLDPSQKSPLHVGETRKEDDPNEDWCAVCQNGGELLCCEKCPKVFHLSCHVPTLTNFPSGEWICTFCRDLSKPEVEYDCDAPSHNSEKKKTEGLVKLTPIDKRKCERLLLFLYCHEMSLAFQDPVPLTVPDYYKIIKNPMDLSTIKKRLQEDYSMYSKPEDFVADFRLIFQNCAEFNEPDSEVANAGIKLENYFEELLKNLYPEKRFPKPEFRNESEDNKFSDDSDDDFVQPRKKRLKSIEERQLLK

[2] = molecular target: T2, Bromodomain-containing protein 4 (Homo sapiens, UniProt O60885); test: Displacement of FAM-labeled ZBA248 from BRD4 BD1 (44 to 168 amino acid residues) (unknown origin) expressed in Rosetta2 DE3 cells after 30 mins by fluorescence polarization assay
[3] = molecular target: T2, Bromodomain-containing protein 4; test: biochemical
[4] = molecular target: T2, Bromodomain-containing protein 4; test: biochemical; remark: listed apart in the source
[5] = molecular target: Histone-lysine N-methyltransferase 2A (Homo sapiens, UniProt Q03164); test: Binding affinity to biotinylated MLL1 (1566 to 1784 amino acid residues) (unknown origin) expressed in Rosetta2 cells by bio-layer interferometry method
[6] = molecular target: T2, Bromodomain-containing protein 4; test: Displacement of FAM-labeled ZBA248 from BRD4 BD2 (333 to 460 amino acid residues) (unknown origin) expressed in Rosetta2 DE3 cells after 30 mins by fluorescence polarization assay
[7] = molecular target: T3, ATPase family AAA domain-containing protein 2 (Homo sapiens, UniProt Q6PL18); test: Binding affinity to biotinylated ATAD2A (981 to 1108 amino acid residues) (unknown origin) expressed in Rosetta2 DE3 cells by bio-layer interferometry method
T3 sequence (Q6PL18 whole entry): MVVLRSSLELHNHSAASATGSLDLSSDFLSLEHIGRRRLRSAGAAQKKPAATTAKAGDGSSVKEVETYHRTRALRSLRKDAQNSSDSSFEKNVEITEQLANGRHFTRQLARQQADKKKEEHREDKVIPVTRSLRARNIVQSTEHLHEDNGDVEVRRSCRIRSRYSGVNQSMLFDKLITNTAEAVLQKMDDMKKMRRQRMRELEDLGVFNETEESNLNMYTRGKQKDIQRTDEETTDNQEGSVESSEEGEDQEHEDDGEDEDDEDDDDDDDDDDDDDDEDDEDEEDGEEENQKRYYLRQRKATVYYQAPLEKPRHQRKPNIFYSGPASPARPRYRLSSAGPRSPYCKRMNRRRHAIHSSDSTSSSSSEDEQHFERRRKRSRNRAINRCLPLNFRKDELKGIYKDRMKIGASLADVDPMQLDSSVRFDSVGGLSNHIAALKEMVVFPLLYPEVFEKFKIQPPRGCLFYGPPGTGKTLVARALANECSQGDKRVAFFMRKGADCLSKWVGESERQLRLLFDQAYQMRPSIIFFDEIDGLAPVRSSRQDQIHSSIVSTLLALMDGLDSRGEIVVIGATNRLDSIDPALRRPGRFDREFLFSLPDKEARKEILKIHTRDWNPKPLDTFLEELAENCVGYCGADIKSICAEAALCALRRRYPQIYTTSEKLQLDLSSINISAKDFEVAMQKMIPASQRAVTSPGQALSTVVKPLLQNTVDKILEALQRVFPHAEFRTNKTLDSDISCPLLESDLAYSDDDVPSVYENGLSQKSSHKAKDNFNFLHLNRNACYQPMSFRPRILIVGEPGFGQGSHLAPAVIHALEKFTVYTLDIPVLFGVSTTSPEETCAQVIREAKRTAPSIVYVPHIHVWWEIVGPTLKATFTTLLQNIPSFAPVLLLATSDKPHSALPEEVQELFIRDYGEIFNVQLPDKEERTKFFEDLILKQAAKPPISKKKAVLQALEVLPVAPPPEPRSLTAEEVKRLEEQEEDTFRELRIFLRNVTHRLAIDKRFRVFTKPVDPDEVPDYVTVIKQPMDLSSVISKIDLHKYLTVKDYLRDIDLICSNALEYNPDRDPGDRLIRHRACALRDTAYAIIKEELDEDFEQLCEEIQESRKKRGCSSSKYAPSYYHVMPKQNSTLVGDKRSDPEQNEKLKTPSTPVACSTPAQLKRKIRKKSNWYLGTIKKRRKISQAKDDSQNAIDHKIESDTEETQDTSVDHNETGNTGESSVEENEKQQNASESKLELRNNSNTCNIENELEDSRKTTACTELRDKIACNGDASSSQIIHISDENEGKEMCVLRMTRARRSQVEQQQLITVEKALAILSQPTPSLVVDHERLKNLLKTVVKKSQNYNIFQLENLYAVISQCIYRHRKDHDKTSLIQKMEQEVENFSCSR

Chain of Protein polybromo-1 (Q86U86 whole entry, the tested form may be a part): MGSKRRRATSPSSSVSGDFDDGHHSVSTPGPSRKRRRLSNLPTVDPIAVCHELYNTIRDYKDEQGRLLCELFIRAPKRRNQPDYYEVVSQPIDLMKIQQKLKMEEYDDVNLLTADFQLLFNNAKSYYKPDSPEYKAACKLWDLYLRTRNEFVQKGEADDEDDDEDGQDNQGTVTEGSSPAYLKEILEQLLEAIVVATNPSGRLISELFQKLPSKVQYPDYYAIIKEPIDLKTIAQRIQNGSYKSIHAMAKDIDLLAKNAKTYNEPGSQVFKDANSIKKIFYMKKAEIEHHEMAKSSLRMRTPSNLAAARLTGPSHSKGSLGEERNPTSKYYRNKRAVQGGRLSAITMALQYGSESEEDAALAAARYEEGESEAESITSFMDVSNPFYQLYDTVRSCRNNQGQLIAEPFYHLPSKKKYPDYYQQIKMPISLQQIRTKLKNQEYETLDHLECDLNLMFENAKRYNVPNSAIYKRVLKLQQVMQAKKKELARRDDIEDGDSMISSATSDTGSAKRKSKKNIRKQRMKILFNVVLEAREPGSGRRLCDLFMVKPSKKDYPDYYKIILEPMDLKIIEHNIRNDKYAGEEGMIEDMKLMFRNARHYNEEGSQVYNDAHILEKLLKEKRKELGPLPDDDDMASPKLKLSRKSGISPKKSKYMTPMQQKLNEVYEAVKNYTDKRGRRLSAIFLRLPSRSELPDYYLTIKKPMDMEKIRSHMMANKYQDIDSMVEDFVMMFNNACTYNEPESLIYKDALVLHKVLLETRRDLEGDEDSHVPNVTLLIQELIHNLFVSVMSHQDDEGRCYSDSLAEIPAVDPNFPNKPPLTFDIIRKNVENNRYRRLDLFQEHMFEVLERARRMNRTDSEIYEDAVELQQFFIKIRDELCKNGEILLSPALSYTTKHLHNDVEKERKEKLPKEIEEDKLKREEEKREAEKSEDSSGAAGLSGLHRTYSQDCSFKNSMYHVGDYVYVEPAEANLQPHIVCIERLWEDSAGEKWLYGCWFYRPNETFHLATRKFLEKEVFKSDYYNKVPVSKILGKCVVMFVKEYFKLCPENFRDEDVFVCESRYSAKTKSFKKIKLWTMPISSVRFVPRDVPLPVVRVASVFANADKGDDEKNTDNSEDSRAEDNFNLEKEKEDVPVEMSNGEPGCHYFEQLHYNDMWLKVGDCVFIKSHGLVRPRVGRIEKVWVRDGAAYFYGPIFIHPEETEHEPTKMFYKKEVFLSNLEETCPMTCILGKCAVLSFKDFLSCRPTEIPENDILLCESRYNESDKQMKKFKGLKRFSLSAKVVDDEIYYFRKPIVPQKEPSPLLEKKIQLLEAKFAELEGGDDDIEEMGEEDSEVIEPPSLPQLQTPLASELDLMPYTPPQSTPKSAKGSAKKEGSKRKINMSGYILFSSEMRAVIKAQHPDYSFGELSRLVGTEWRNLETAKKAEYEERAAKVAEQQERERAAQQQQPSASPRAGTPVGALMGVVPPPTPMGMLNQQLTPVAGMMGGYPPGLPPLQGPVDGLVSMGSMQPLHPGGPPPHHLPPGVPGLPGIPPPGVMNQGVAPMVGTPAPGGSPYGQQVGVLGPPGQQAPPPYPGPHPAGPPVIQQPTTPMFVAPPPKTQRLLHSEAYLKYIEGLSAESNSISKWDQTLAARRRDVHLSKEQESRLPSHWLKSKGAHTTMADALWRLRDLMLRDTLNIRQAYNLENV

IC50 (K562): > 2000 nM
Kd (Protein polybromo-1): > 10000 nM
Kd [1]: 10000 nM
IC50 [2]: 75.5 nM
Ki [2]: 24.7 nM
Kd [3]: 47 nM
Kd [4]: 44.6 nM
Kd [5]: 9500 nM
IC50 [6]: 36.5 nM
Ki [6]: 12.2 nM
Kd [7]: > 10000 nM
SMILES: COc1cc2c(cc1-c1c(C)noc1C)[nH]c1ccnc(-c3c(C4CC4)n[nH]c3C)c12
